Where two headings read alike, the source gives them in different places.
What was measured:
progesterone receptor = target: T1, progesterone receptor (Homo sapiens, UniProt P06401); test: Progesterone receptor binding test; settings: for Progesterone receptor (PR) Competition factor: CF 1 = affinity of progesterone, CF >1 lower affinity, <1 higher affinity; for CF PR/CF MR: ratio of competition factors CF(PR) and CF(MR)
T1 construct: made in house; host or cells: Hi5 insect cells (cytosol)
T1 sequence (P06401 1-933): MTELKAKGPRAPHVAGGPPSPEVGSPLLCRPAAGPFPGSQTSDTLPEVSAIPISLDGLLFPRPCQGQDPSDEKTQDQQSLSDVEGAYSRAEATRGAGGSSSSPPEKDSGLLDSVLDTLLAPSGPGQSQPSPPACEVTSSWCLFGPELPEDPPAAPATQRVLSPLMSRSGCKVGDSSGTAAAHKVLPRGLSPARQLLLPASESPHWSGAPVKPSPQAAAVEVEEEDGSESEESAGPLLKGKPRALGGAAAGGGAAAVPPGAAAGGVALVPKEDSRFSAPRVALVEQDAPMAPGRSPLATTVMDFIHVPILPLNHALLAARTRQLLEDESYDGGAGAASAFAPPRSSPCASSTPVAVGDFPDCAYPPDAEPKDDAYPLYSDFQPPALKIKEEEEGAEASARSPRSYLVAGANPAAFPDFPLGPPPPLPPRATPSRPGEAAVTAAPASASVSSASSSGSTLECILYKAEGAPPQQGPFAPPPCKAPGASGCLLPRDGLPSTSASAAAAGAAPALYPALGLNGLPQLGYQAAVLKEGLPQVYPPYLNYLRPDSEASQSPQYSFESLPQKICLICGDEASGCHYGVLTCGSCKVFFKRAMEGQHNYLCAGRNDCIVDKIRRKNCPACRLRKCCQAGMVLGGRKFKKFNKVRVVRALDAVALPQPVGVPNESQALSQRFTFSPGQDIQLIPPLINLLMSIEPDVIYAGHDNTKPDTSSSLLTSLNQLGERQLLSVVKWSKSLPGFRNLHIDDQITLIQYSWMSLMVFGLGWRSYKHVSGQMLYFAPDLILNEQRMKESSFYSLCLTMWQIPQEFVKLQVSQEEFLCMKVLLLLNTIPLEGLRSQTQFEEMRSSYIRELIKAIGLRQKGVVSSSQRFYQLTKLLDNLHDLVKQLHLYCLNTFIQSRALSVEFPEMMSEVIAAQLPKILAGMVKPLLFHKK
Procedure: 1. Progesterone Receptor Binding Test:
Using cytosol from progesterone receptor-expressing insect cells (Hi5), competitive binding to the progesterone receptor was determined from the ability to displace ^3H-progesterone as reference substance from the receptor.

[1] = target: T2, mineralocorticoid receptor (Homo sapiens, UniProt P08235); test: Antimineralocorticoid action by transactivation test (MDCK reporter cells); format: cell-based; parameters: expressed in transfected cells; host or cells: MDCK cells; settings: for Emax: read-out: Mineralocorticoid receptor Antagonism efficacy;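 for Emax: percent inhibition of the aldosterone-stimulated reporter signal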;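 for Mineralocorticoid receptor Antagonism efficacy: percent inhibition of the aldosterone-stimulated reporter signal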
T2 sequence (P08235 1-984): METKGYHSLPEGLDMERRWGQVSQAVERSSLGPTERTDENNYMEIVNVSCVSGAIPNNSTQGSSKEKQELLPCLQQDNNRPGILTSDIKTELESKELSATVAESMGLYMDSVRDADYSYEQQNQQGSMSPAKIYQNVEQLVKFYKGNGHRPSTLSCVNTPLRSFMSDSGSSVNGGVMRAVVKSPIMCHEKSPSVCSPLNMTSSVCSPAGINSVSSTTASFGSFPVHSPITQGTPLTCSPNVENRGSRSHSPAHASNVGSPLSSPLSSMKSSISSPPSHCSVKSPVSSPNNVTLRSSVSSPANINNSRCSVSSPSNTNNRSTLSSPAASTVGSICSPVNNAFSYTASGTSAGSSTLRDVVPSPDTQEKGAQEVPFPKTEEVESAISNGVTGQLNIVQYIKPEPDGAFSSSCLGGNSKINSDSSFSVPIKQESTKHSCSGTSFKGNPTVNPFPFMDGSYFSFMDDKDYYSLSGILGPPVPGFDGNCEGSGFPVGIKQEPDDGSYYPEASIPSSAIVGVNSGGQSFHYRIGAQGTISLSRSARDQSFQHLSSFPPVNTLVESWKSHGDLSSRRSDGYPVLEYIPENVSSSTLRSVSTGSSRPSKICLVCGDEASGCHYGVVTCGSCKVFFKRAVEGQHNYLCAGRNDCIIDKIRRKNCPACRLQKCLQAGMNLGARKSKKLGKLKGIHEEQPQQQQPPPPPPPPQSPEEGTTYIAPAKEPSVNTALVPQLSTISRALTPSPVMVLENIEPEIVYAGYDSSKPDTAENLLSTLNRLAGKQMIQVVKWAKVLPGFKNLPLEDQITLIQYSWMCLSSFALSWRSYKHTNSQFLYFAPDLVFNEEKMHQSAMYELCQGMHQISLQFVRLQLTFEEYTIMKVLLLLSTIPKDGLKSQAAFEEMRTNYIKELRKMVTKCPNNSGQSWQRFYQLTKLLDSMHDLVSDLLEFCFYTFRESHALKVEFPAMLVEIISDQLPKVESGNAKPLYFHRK
Procedure: The test compounds were added eight hours later, and the cells were incubated with the compounds for 16 hours. The tests were carried out in triplicate. At the end of incubation the medium containing the effector was removed and replaced with lysis buffer. After luciferase assay substrate (Promega, #E1501) had been added, the 96-well plates were then put in a microplate luminometer (Pherastar, BMG Labtech), and the luminescence was measured. The IC50 values were evaluated using software for calculating dose-effect relations.
5. Determination of Antimineralocorticoid Action by Means of Transactivation Tests:
The antimineralocorticoid activity of the test substances was determined as for the transactivation tests described above.
The following modifications were undertaken: In this case reporter cell lines were used (MDCK cells) that express the human mineralocorticoid receptor, and transiently contain a reporter construct that contains luciferase under the control of a steroid hormone-responsive promoter.

| SMILES | IC50 (progesterone receptor) | Progesterone receptor (PR) Competition factor (progesterone receptor) | CF PR/CF MR (progesterone receptor) | IC50 [1] | Emax ([1]; MDCK) | IC50 (progesterone receptor; displacement of 3H-progesterone, cytosol from PR-expressing insect cells (Hi5), read-out: Progesterone receptor (PR) IC50) | IC50 ([1]; MDCK cells, with 1 nM aldosterone, read-out: Mineralocorticoid receptor Antagonism IC50) | Emax ([1]; MDCK cells, with 1 nM aldosterone) |
| --- | --- | --- | --- | --- | --- | --- | --- | --- |
| C[C@@H]1CC2=CC(=O)CC[C@@H]2[C@H]2CC[C@@]3(C)[C@@H]([C@H]4C[C@H]4[C@@]34C=CC(=O)O4)[C@@H]21 [Example 14A, 17β-Hydroxy-7α-methyl-15α,16α-methylene-19-nor-17α-pregna-4,20(Z)-dien-3-one-21-carboxylic acid γ-lactone] | 49 nM | 2.04 | 1.57 | 3 nM | 83% |  |  |  |
| CC[C@@H]1CC2=CC(=O)CC[C@@H]2[C@H]2CC[C@@]3(C)[C@@H]([C@H]4C[C@H]4[C@@]34C=CC(=O)O4)[C@H]12 [Example 15A, 17β-Hydroxy-7α-ethyl-15α,16α-methylene-19-nor-17α-pregna-4,20(Z)-dien-3-one-21-carboxylic acid γ-lactone] | 200 nM | 8.36 | 10.45 | 12 nM | 112% |  |  |  |
| C=C[C@@H]1CC2=CC(=O)CC[C@@H]2[C@H]2CC[C@@]3(C)[C@@H]([C@H]4C[C@H]4[C@@]34C=CC(=O)O4)[C@@H]21 [Example 16A, 17β-Hydroxy-7α-vinyl-15α,16α-methylene-19-nor-17α-pregna-4;20(Z)-dien-3-one-21-carboxylic acid γ-lactone] | 85 nM | 3.76 | 1.88 | 95 nM | 103% |  |  |  |
| C[C@]12CC[C@H]3[C@H]([C@@H]1[C@H]1C[C@H]1[C@@]21C=CC(=O)O1)[C@H](C1CC1)CC1=CC(=O)CC[C@@H]13 [Example 17A, 17β-Hydroxy-7α-cyclopropyl-15α,16α-methylene-19-nor-17α-pregna-4,20(Z)-dien-3-one-21-carboxylic acid γ-lactone] | 280 nM | 12.24 | 4.71 | 89 nM | 115% |  |  |  |
| C[C@]12CC[C@H]3[C@@H](CCC4=C(Cl)C(=O)CC[C@@H]43)[C@@H]1[C@H]1C[C@H]1[C@@]21C=CC(=O)O1 [Example 18, 4-Chloro-17β-hydroxy-15α,16α-methylene-19-nor-17α-pregna-4,20(Z)-dien-3-one-21-carboxylic acid γ-lactone] | 400 nM | 17.24 | 0.49 | 830 nM | 37.3% |  |  |  |
| C[C@]12CC[C@H]3[C@@H](CCC4=CC(=O)CC[C@@H]43)[C@@H]1[C@@H]1C[C@@H]1[C@@]21C=CC(=O)O1 [Example 19, 17β-Hydroxy-15β,16β-methylene-19-nor-17α-pregna-4,20(Z)-dien-3-one-21-carboxylic acid γ-lactone] | 25 nM | 1.70 | 0.01 | 62 nM | 92.8% |  |  |  |
| C[C@]12CC[C@H]3[C@@H](C[C@@H](CO)C4=CC(=O)CC[C@@H]43)[C@@H]1[C@@H]1C[C@@H]1[C@@]21C=CC(=O)O1 [Example 21, 17β-Hydroxy-6β-hydroxymethylene-15β,16β-methylene-19-nor-17α-pregna-4,20(Z)-dien-3-one-21-carboxylic acid γ-lactone] |  | 159.27 |  |  |  | 4800 nM | 160 nM | 68% |
| C[C@]12CC[C@H]3[C@@H](CC4(CC4)C4=CC(=O)CC[C@@H]43)[C@@H]1[C@@H]1C[C@@H]1[C@@]21C=CC(=O)O1 [Example 22, 6,6-(1,2-Ethanediyl)-17β-hydroxy-15β,16β-methylene-19-nor-17α-pregna-4,20(Z)dien-3-one-21-carboxylic acid γ-lactone] | 30 nM | 1.04 | 1.30 | 49 nM | 91.2% |  |  |  |
| C[C@@H]1CC2=CC(=O)CC[C@@H]2[C@H]2CC[C@@]3(C)[C@@H]([C@@H]4C[C@@H]4[C@@]34C=CC(=O)O4)[C@@H]21 [Example 23A, 17β-Hydroxy-7α-methyl-15β,16β-methylene-19-nor-17α-pregna-4,20(2)-dien-3-one-21-carboxylic acid γ-lactone] | 120 nM | 3.79 | 1.99 | 290 nM | 105% |  |  |  |
| CC[C@@H]1CC2=CC(=O)CC[C@@H]2[C@H]2CC[C@@]3(C)[C@@H]([C@@H]4C[C@@H]4[C@@]34C=CC(=O)O4)[C@H]12 [Example 24A, 7α-Ethyl-17β-hydroxy-15β,16β-methylene-19-nor-17α-pregna-4,20(Z)-dien-3-one-21-carboxylic acid γ-lactone] | 1300 nM | 41.55 | 21.87 | 160 nM | 81.1% |  |  |  |
| C=C[C@@H]1CC2=CC(=O)CC[C@@H]2[C@H]2CC[C@@]3(C)[C@@H]([C@@H]4C[C@@H]4[C@@]34C=CC(=O)O4)[C@@H]21 [Example 25A, 17β-Hydroxy-15β,16β-methylene-7α-vinyl-19-nor-17α-pregna-4,20(Z)-dien-3-one-21-carboxylic acid γ-lactone] | 150 nM | 6.14 | 0.65 | 910 nM | 84.1% |  |  |  |
| C[C@]12CC[C@H]3[C@@H](CCC4=C(Cl)C(=O)CC[C@@H]43)[C@@H]1[C@@H]1C[C@@H]1[C@@]21C=CC(=O)O1 [Example 27, 4-Chloro-17β-hydroxy-15β,16β-methylene-19-nor-17α-pregna-4,20(Z)-dien-3-one-21-carboxylic acid γ-lactone] | 2900 nM | 101.93 | 2.17 | 1000 nM | 5% |  |  |  |

Source: patent US20110015162A1, “15,16-Methylene-17-hydroxy-19-nor-21-carboxylic acid-steroid Y-lactone derivative, use thereof and medicinal products containing the derivative” (Bayer Schering Pharma Aktiengesellschaft, priority 2007, published 2011)
